System: P. falciparum (NF54 or 3D7 strain)
Assay: Assay for P. falciparum proliferation in infected human blood cells (SYBR Green)
Format: cell-based, Plasmodium falciparum
Details: NF54 or 3D7 infected human erythrocytes, 72 hours; read-out: EC50 (nM), inhibitory efficacy in delaying P. falciparum proliferation in infected human blood cells
In short: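 NF54 or 3D7 parasites in O+ human erythrocytes at 2.5% hematocrit and 0.3% parasitemia final, exposed to compounds 72 h at 37 °C under 93% N2/4% CO2/3% O2.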

| EC50 | Structure (SMILES) |
| --- | --- |
| 607 nM | O=C(c1cn2c(-c3ccc(C(F)(F)F)cc3)cnc2cn1)N1CCOc2ccccc21 [Compound 306, ({3-[4-(trifluoromethyl)phenyl]imidazo[1,2-a]pyrazin-6-yl}carbonyl)-3,4-dihydro-2H-1,4-benzoxazine] |
| 218 nM | CN(C(=O)c1cn2c(-c3ccc4c(cnn4C)c3)cnc2cn1)c1ccc(F)cc1 [Compound 107, N-(4-fluorophenyl)-N-methyl-3-(1-methyl-1H-indazol-5-yl)imidazo[1,2-a]pyrazine-6-carboxamide] |

Same assay, conditions: Plasmodium falciparum, 3D7|NF54, Erythrocyte, in Homo sapiens, 72 h, NF54 or 3D7 infected human erythrocytes, 72 hours; read-out: EC50 (nM), inhibitory efficacy in delaying P. falciparum proliferation in infected human blood cells

| EC50 | Structure (SMILES) |
| --- | --- |
| 4080 nM | COc1ccc(-c2cnc3cnc(CN(C)c4ccc(C)cn4)cn23)cn1 [Compound 338] |

Same assay, conditions: Plasmodium falciparum, Erythrocyte, 72 h, NF54 or 3D7 infected human erythrocytes, 72 hours; read-out: EC50 (nM), inhibitory efficacy in delaying P. falciparum proliferation in infected human blood cells

| Structure (SMILES) | EC50 |
| --- | --- |
| CN(C(=O)c1cn2c(-c3cnn(Cc4ccccc4)c3)cnc2cn1)c1ccc(C#N)cc1 [Compound 178, 3-(1-benzyl-1H-pyrazol-4-yl)-N-(4-cyanophenyl)-N-methylimidazo[1,2-a]pyrazine-6-carboxamide] | 6510 nM |
| CN(C(=O)c1cn2c(-c3ccc(-c4ccn[nH]4)cc3)cnc2cn1)c1ccc(Cl)cc1 [Compound 13, N-(4-chlorophenyl)-N-methyl-3-[4-(1H-pyrazol-5-yl)phenyl]imidazo[1,2-a]pyrazine-6-carboxamide] | 41 nM |
| CN(C(=O)c1cn2c(-c3ccc(NC(=O)C4(CN)CC4)cc3)cnc2cn1)c1ccc(C#N)cc1 [Compound 307, 3-(4-{[1-(aminomethyl)cyclopropane]amido}phenyl)-N-(4-cyanophenyl)-N-methylimidazo[1,2-a]pyrazine-6-carboxamide] | 1070 nM |
| COc1ccc(-c2cnc3cnc(C(=O)N(C)c4ccc(Cl)nc4)cn23)c(F)c1 [Compound 280, N-(6-chloropyridin-3-yl)-3-(2-fluoro-4-methoxyphenyl)-N-methylimidazo[1,2-a]pyrazine-6-carboxamide] | 707 nM |
| CN(C(=O)c1ccc(C(F)(F)F)cc1)c1cn2c(-c3ccc(C(F)(F)F)cc3)cnc2cn1 [Compound 276, N-methyl-4-(trifluoromethyl)-N-{3-[4-(trifluoromethyl)phenyl]imidazo[1,2-a]pyrazin-6-yl}benzamide] | 310 nM |
| CN(C(=O)c1cncnc1)c1cn2c(-c3ccc(C(F)(F)F)cc3)cnc2cn1 [Compound 498, N-methyl-N-{3-[4-(trifluoromethyl)phenyl]imidazo[1,2-a]pyrazin-6-yl}pyrimidine-5-carboxamide] | 5690 nM |
| CN(C(=O)c1cn2c(-c3ccc(C(F)(F)F)cc3)cnc2cn1)c1cnc(Cl)cn1 [Compound 91, -(5-chloropyrazin-2-yl)-N-methyl-3-[4-(trifluoromethyl)phenyl]imidazo[1,2-a]pyrazine-6-carboxamide] | 4300 nM |
| COc1ccc(-c2cnc3cnc(C(=O)N(C)c4ccc(C#N)cc4)cn23)cc1Cl [Compound 42, -(3-chloro-4-methoxyphenyl)-N-(4-cyanophenyl)-N-methylimidazo[1,2-a]pyrazine-6-carboxamide] | 333 nM |
| COc1ccc(-c2cnc3cnc(C(=O)N(C)c4ccc(Cl)cc4Cl)cn23)cc1 [Compound 41, N-(2,4-dichlorophenyl)-3-(4-methoxyphenyl)-N-methylimidazo[1,2-a]pyrazine-6-carboxamide] | 97 nM |

Further lines, results first:

| EC50 | Structure (SMILES) |
| --- | --- |
| > 10000 nM | CN(C)c1cccc(-c2cnc3cnc(C(=O)N(C)c4ccc(C#N)cc4)cn23)c1 [Compound 438, N-(4-cyanophenyl)-3-[3-(dimethylamino)phenyl]-N-methylimidazo[1,2-a]pyrazine-6-carboxamide] |
| 2120 nM | CN(C(=O)c1cn2c(-c3ccc(C(F)(F)F)cc3)cnc2cn1)c1cncc(Cl)c1 [Compound 355, N-(5-chloropyridin-3-yl)-N-methyl-3-[4-(trifluoromethyl)phenyl]imidazo[1,2-a]pyrazine-6-carboxamide] |
| 4010 nM | CN(C(=O)c1cn2c(-c3ccc(C(F)(F)F)cc3)cnc2cn1)c1ccccc1C(F)(F)F [Compound 171, N-methyl-N-[2-(trifluoromethyl)phenyl]-3-[4-(trifluoromethyl)phenyl]imidazo[1,2-a]pyrazine-6-carboxamide] |
| 92 nM | CN(C(=O)c1cn2c(-c3ccc(-c4ccn[nH]4)cc3)cnc2cn1)c1ccc(F)cc1 [Compound 257, N-(4-fluorophenyl)-N-methyl-3-[4-(1H-pyrazol-5-yl)phenyl]imidazo[1,2-a]pyrazine-6-carboxamide] |
| 7850 nM | CN(C(=O)c1cn2c(-c3ccc(NCCN4CCOCC4)nc3)cnc2cn1)c1ccc(C#N)cc1 [Compound 400, -(4-cyanophenyl)-N-methyl-3-(6-{[2-(morpholin-4-yl)ethyl]amino}pyridin-3-yl)imidazo[1,2-a]pyrazine-6-carboxamide] |
| 8330 nM | Cc1cc(Cl)ccc1-c1cnc2cnc(C(=O)N(C)c3ccc(C#N)cc3)cn12 [Compound 26, 3-(4-chloro-2-methylphenyl)-N-(4-cyanophenyl)-N-methylimidazo[1,2-a]pyrazine-6-carboxamide] |
| 387 nM | CN(C(=O)c1cn2c(-c3ccc(C(F)(F)F)cc3)cnc2cn1)c1ccc(F)cn1 [Compound 63, N-(5-fluoropyridin-2-yl)-N-methyl-3-[4-(trifluoromethyl)phenyl]imidazo[1,2-a]pyrazine-6-carboxamide] |
| > 10000 nM | CN(C(=O)c1cn2c(-c3ccc(F)cc3)cnc2cn1)c1ccc(Cl)nc1 [Compound 422, N-(6-chloropyridin-3-yl)-3-(4-fluorophenyl)-N-methylimidazo[1,2-a]pyrazine-6-carboxamide] |
| 147 nM | CN(C(=O)c1cn2c(-c3ccc(C(C)(C)C#N)cc3)cnc2cn1)c1ccc(C#N)cc1 [Compound 120, -[4-(1-cyano-1-methylethyl)phenyl]-N-(4-cyanophenyl)-N-methylimidazo[1,2-a]pyrazine-6-carboxamide] |
| > 10000 nM | CN(C(=O)c1cn2c(-c3cncc(S(N)(=O)=O)c3)cnc2cn1)c1ccc(C#N)cc1 [Compound 184, N-(4-cyanophenyl)-N-methyl-3-(5-sulfamoylpyridin-3-yl)imidazo[1,2-a]pyrazine-6-carboxamide] |
| > 7910 nM | CC(C)(NC(=O)c1cn2c(-c3ccc(C(F)(F)F)cc3)cnc2cn1)c1ccc(F)cc1 [Compound 414, N-[2-(4-fluorophenyl)propan-2-yl]-3-[4-(trifluoromethyl)phenyl]imidazo[1,2-a]pyrazine-6-carboxamide] |
| 6980 nM | COc1ncc(N(C)C(=O)c2cn3c(-c4ccc(C(F)(F)F)cc4)cnc3cn2)cn1 [Compound 399, N-(2-methoxypyrimidin-5-yl)-N-methyl-3-[4-(trifluoromethyl)phenyl]imidazo[1,2-a]pyrazine-6-carboxamide] |
| 2300 nM | Cc1cccc(N(C)C(=O)c2cn3c(-c4ccc(C(F)(F)F)cc4)cnc3cn2)n1 [Compound 345, N-methyl-N-(6-methylpyridin-2-yl)-3-[4-(trifluoromethyl)phenyl]imidazo[1,2-a]pyrazine-6-carboxamide] |
| 82 nM | CC(C)c1ccc(-c2cnc3cnc(C(=O)N(C)c4ccc(C#N)cc4)cn23)cc1 [Compound 115, N-(4-cyanophenyl)-N-methyl-3-[4-(propan-2-yl)phenyl]imidazo[1,2-a]pyrazine-6-carboxamide] |

Same assay, conditions: Plasmodium falciparum, Erythrocyte, 72 h, read-out: EC50 (nM), inhibitory efficacy in delaying P. falciparum proliferation in infected human blood cells

| Structure (SMILES) | EC50 |
| --- | --- |
| O=C(Nc1ccc(C(F)(F)F)cc1)c1cn2c(-c3ccc(C(F)(F)F)cc3)cnc2cn1 [Compound 445, N,3-bis[4-(trifluoromethyl)phenyl]imidazo[1,2-a]pyrazine-6-carboxamide] | > 10000 nM |
